Assay results: patent US9365522B2, “Pyrazole amide derivative” (AMGEN INC., priority 2015, dated 2016)

target: T1, ligand binding domain of human ROR gamma (Homo sapiens, UniProt P51449); experiment: ROR gamma reporter gene assay (GAL4-RORγ LBD luciferase, Dual-Glo); assay type: cell-based; conditions: HEK293T cells transfected with pM-ROR gamma, 8 concentrations 3.5 nM to 10.5 μM, 24 h incubation; read-out: result (pIC50, inhibition of RORγ transcriptional activity) (converted)
T1 construct: NM_001001523; expressed in transfected cells; host or cells: HEK293T
T1 sequence (P51449 247-497 isoform P51449-2): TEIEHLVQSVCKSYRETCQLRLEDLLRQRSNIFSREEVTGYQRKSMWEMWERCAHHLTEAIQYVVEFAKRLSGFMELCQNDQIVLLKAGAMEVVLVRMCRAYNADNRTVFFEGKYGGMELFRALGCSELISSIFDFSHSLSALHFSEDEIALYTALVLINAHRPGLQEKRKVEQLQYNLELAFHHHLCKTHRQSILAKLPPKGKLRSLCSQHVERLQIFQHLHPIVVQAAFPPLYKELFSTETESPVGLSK
Outline: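 HEK293T cells were co-transfected with GAL4 DBD fused to human RORγ LBD (aa 247-497), a 5×UAS firefly luciferase reporter and CMV-driven renilla luciferase, in medium with 10% charcoal-stripped FBS.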

Q: For `CC1(C)CCC(N(CC(=O)c2c(Cl)cc(F)cc2Cl)C(=O)c2cnn([C@H]3C[C@@H](C(=O)O)C3)c2C(F)(F)F)CC1` [Example 291, cis-3-(4-((2-(2,6-dichloro-4-fluorophenyl)-2-oxoethyl)-(4,4-dimethylcyclohexyl)carbamoyl)-5-(trifluoromethyl)pyrazol-1-yl)cyclobutane-1-carboxylic acid], which IC50 is on record?
A: 1.02e+06 pM

Q: With `CC(C)(C)OCCN(CC(=O)c1c(Cl)cc(F)cc1Cl)C(=O)c1cnn([C@H]2CC[C@](C)(C(=O)O)CC2)c1C(F)(F)F` [Example 292, trans-4-(4-((2-(2,6-dichloro-4-fluorophenyl)-2-oxoethyl)-(2-((2-methylpropan-2-yl)oxy)ethyl)carbamoyl)-5-(trifluoromethyl)pyrazol-1-yl)-1-methylcyclohexane-1-carboxylic acid] as the molecule, how does the IC50 read?
A: 47900 pM

Q: Which IC50 does the source give for `CC(C)(C)OCCN(CC(=O)c1c(Cl)cc(Cl)cc1Cl)C(=O)c1cnn([C@H]2CC[C@](C)(C(=O)O)CC2)c1C(F)(F)F` [Example 293, trans-1-methyl-4-(4-(2-((2-methylpropan-2-yl)oxy)ethyl-(2-oxo-2-(2,4,6-trichlorophenyl)ethyl)carbamoyl)-5-(trifluoromethyl)pyrazol-1-yl)cyclohexane-1-carboxylic acid] here?
A: 33100 pM

Q: For `CC(C)(C)CN(CC(=O)c1c(F)cncc1Cl)C(=O)c1cnn([C@H]2CC[C@](C)(C(=O)O)CC2)c1C(F)(F)F` [Example 294, trans-4-(4-((2-(3-chloro-5-fluoropyridin-4-yl)-2-oxoethyl)-(2,2-dimethylpropyl)carbamoyl)-5-(trifluoromethyl)pyrazol-1-yl)-1-methylcyclohexane-1-carboxylic acid], which IC50 is on record?
A: 49000 pM

Q: Which IC50 does the source give for `CN1CCC(N(CC(=O)c2c(Cl)cc(F)cc2Cl)C(=O)c2cnn([C@H]3CC[C@](C)(C(=O)O)CC3)c2C(F)(F)F)CC1` [Example 295, trans-4-(4-((2-(2,6-dichloro-4-fluorophenyl)-2-oxoethyl)-(1-methylpiperidin-4-yl)carbamoyl)-5-(trifluoromethyl)pyrazol-1-yl)-1-methylcyclohexane-1-carboxylic acid] here?
A: 5.62e+06 pM

Q: `CC(C)N1CCC(N(CC(=O)c2c(Cl)cc(F)cc2Cl)C(=O)c2cnn([C@H]3CC[C@](C)(C(=O)O)CC3)c2C(F)(F)F)CC1` [Example 296, trans-4-(4-((2-(2,6-dichloro-4-fluorophenyl)-2-oxoethyl)-(1-propan-2-ylpiperidin-4-yl)carbamoyl)-5-(trifluoromethyl)pyrazol-1-yl)-1-methylcyclohexane-1-carboxylic acid] was tested. Which IC50 did it give?
A: > 1.05e+07 pM

Q: How did the IC50 turn out when `CC(C)(C)CN(CC(=O)c1c(F)cccc1Cl)C(=O)c1cnn([C@H]2CC[C@](C)(C(=O)O)CC2)c1C(F)(F)F` [Example 297, trans-4-(4-((2-(2-chloro-6-fluorophenyl)-2-oxoethyl)-(2,2-dimethylpropyl)carbamoyl)-5-(trifluoromethyl)pyrazol-1-yl)-1-methylcyclohexane-1-carboxylic acid] was run?
A: 66100 pM

Q: Which IC50 does the source give for `O=C(CN(CC1(F)CCCC1)C(=O)c1cnn(C23CCC(C(=O)O)(CC2)CC3)c1C(F)(F)F)c1c(Cl)cc(Cl)cc1Cl` [Example 298, 4-(4-((1-fluorocyclopentyl)methyl-(2-oxo-2-(2,4,6-trichlorophenyl)ethyl)carbamoyl)-5-(trifluoromethyl)pyrazol-1-yl)bicyclo[2.2.2]octane-1-carboxylic acid] here?
A: 12900 pM

Q: With `O=C(CN(CC1(F)CCCC1)C(=O)c1cnn(C23CCC(C(=O)O)(CC2)CC3)c1C(F)(F)F)c1c(Cl)cncc1Cl` [Example 299, 4-(4-((2-(3,5-dichloropyridin-4-yl)-2-oxoethyl)-((1-fluorocyclopentyl)methyl)carbamoyl)-5-(trifluoromethyl)pyrazol-1-yl)bicyclo[2.2.2]octane-1-carboxylic acid] as the molecule, how does the IC50 read?
A: 20900 pM

Q: With `Cc1cc(Cl)c(C(=O)CN(CC2(F)CCCC2)C(=O)c2cnn(C34CCC(C(=O)O)(CC3)CC4)c2C(F)(F)F)c(Cl)c1` [Example 300, 4-(4-((2-(2,6-dichloro-4-methyIphenyl)-2-oxoethyl)-((1-fluorocyclopentyl)methyl)carbamoyl)-5-(trifluoromethyl)pyrazol-1-yl)bicyclo[2.2.2]octane-1-carboxylic acid] as the molecule, how does the IC50 read?
A: 24000 pM

Q: How did the IC50 turn out when `CC1(C)CCC(N(CC(=O)c2c(Cl)cc(F)cc2Cl)C(=O)c2cnn([C@H]3CC[C@@](C)(C(=O)O)CC3)c2C(F)(F)F)CC1` [Example 301, cis-4-(4-((2-(2,6-dichloro-4-fluorophenyl)-2-oxoethyl)-(4,4-dimethylcyclohexyl)carbamoyl)-5-(trifluoromethyl)pyrazol-1-yl)-1-methylcyclohexane-1-carboxylic acid] was run?
A: 186000 pM

Q: For `CCC(C)(C)CN(CC(=O)c1c(Cl)cc(F)cc1Cl)C(=O)c1cnn([C@H]2CC[C@](C)(C(=O)O)CC2)c1C(F)(F)F` [Example 302, trans-4-(4-((2-(2,6-dichloro-4-fluorophenyl)-2-oxoethyl)-(2,2-dimethylbutyl)carbamoyl)-5-(trifluoromethyl)pyrazol-1-yl)-1-methylcyclohexane-1-carboxylic acid], which IC50 is on record?
A: 14800 pM

Q: `CN1C2CCC1CC(N(CC(=O)c1c(Cl)cc(F)cc1Cl)C(=O)c1cnn([C@H]3CC[C@](C)(C(=O)O)CC3)c1C(F)(F)F)C2` (stereo partly drawn) [Example 303, trans-4-(4-((2-(2,6-dichloro-4-fluorophenyl)-2-oxoethyl)-(8-methyl-8-azabicyclo[3.2.1]octan-3-yl)carbamoyl)-5-(trifluoromethyl)pyrazol-1-yl)-1-methylcyclohexane-1-carboxylic acid] was tested. Which IC50 did it give?
A: > 3.47e+06 pM

Q: How did the IC50 turn out when `C[C@]1(C(=O)O)CC[C@H](n2ncc(C(=O)N(CC(=O)c3c(Cl)cc(F)cc3Cl)C3CC4CCC(C3)N4)c2C(F)(F)F)CC1` (stereo partly drawn) [Example 304, trans-4-(4-(8-azabicyclo [3.2.1]octan-3-yl-(2-[2,6-dichloro-4-fluorophenyl)-2-oxoethyl)carbamoyl)-5-(trifluoromethyl)pyrazol-1-yl)-1-methylcyclohexane-1-carboxylic acid] was run?
A: > 1.05e+07 pM

Q: For `CC(C)N1C2CCC1CC(N(CC(=O)c1c(Cl)cc(F)cc1Cl)C(=O)c1cnn([C@H]3CC[C@](C)(C(=O)O)CC3)c1C(F)(F)F)C2` (stereo partly drawn) [Example 305, trans-4-(4-((2-(2,6-dichloro-4-fluorophenyl)-2-oxoethyl)-(8-propan-2-yl-8-azabicyclo[3.2.1]octan-3-yl)carbamoyl)-5-(trifluoromethyl)pyrazol-1-yl)-1-methylcyclohexane-1-carboxylic acid], which IC50 is on record?
A: > 1.05e+07 pM

Q: `CCC(C)(C)CN(CC(=O)c1c(Cl)cc(Cl)cc1Cl)C(=O)c1cnn([C@H]2CC[C@](C)(C(=O)O)CC2)c1C(F)(F)F` [Example 306, trans-4-(4-(2,2-dimethylbutyl-(2-oxo-2-(2,4,6-trichlorophenyl)ethyl)carbamoyl)-5-(trifluoromethyl)pyrazol-1-yl)-1-methylcyclohexane-1-carboxylic acid] was tested. Which IC50 did it give?
A: 8320 pM

Q: `Cc1cc(Cl)c(C(=O)CN(Cc2cc(F)cc(F)c2)C(=O)c2cnn([C@H]3CC[C@H](C(=O)O)CC3)c2C(F)(F)F)c(C#N)c1` [Example 307, trans-4-(4-((2-(2-chloro-6-cyano-4-methylphenyl)-2-oxoethyl)-((3,5-difluorophenyl)methyl)carbamoyl)-5-(trifluoromethyl)pyrazol-1-yl)cyclohexane-1-carboxylic acid] was tested. Which IC50 did it give?
A: 8.32e+06 pM

Q: With `CCC(C)(C)CN(CC(=O)c1c(Cl)cc(Cl)cc1Cl)C(=O)c1cnn(C23CCC(C(=O)O)(CC2)CC3)c1C(F)(F)F` [Example 308, 4-(4-(2,2-dimethylbutyl-(2-oxo-2-(2,4,6-trichlorophenyl)ethyl)carbamoyl)-5-(trifluoromethyl)pyrazol-1-yl)bicyclo[2.2.2]octane-1-carboxylic acid] as the molecule, how does the IC50 read?
A: 16600 pM

Q: How did the IC50 turn out when `CCC(C)(C)CN(CC(=O)c1c(Cl)cc(F)cc1Cl)C(=O)c1cnn(C23CCC(C(=O)O)(CC2)CC3)c1C(F)(F)F` [Example 309, 4-(4-((2-(2,6-dichloro-4-fluorophenyl)-2-oxoethyl)-(2,2 dimethylbutyl)carbarnoyl)-5-(trifluoromethyl)pyrazol-1-yl)bicyclo [2.2.2] octane-1-carboxylic acid] was run?
A: 11200 pM

Q: For `CC(C)(C)CN(CC(=O)c1c(Cl)cncc1Cl)C(=O)c1cnn([C@H]2CC[C@](C)(C(=O)O)CC2)c1C#N` [Example 310, trans-4-(5-cyano-4-((2-(3,5-dichloropyridin-4-yl)-2-oxoethyl)-(2,2-dimethylpropyl)carbamoyl)pyrazol-1-yl)-1-methylcyclohexane-1-carboxylic acid], which IC50 is on record?
A: > 1.05e+07 pM

Q: Which IC50 does the source give for `CN1C(C)(C)CC(N(CC(=O)c2c(Cl)cncc2Cl)C(=O)c2cnn([C@H]3CC[C@](C)(C(=O)O)CC3)c2C(F)(F)F)CC1(C)C` [Example 311, trans-4-(4-((2-(3,5-dichloropyridin-4-yl)-2-oxoethyl)-(1,2,2,6,6-pentamethylpiperidin-4-yl)carbamoyl)-5-(trifluoromethyl)pyrazol-1-yl)-1-methylcyclohexane-1-carboxylic acid] here?
A: > 1.05e+07 pM

Q: How did the IC50 turn out when `CC(C)CC(C)N(CC(=O)c1c(Cl)cncc1Cl)C(=O)c1cnn([C@H]2CC[C@](C)(C(=O)O)CC2)c1C(F)(F)F` (stereo partly drawn) [Example 312, trans-4-(4-((2-(3,5-dichloropyridin-4-yl)-2-oxoethyl)-(4-methylpentan-2-yl)carbamoyl)-5-(trifluoromethyl)pyrazol-1-yl)-1-methylcyclohexane-1-carboxylic acid] was run?
A: 52500 pM
